Laboratory results from the NIST ThermoML archive (doi:10.1016/j.tca.2014.01.028).
± gives the expanded uncertainty stated by the source.

Legend:
[1] = Crystal; DTA
[2] = Molar enthalpy of transition or fusion; details: Crystal; DSC

Normal melting temperature [1]: 135.60 ± 0.5 °C
Molar enthalpy of transition or fusion [2]: 7.65 ± 0.217 kcal/mol
Structure (SMILES): O=C(c1ccccc1)C(C(=O)c1ccccc1)[C@H](C[N+](=O)[O-])c1ccccc1
